Experimental data taken from PubChem BioAssay AID330 (DTP/NCI, 2004).
Inconclusive results and toxic doses are left out. Rule for the calls: active = survival T/C of 150% or more; inactive = T/C below 125% in these data.

System: P388 leukemia ip, CD2F1 mice, survival T/C
Assay: NCI In Vivo Anticancer Drug Screen. Data for tumor model P388 Leukemia (intraperitoneal) in CD2F1 (CDF1) mice
Conditions: endpoint: median survival time, higher = longer survival
Procedure, shortened: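 Mice carrying the transplanted tumor received test compound or vehicle. Survival was recorded in each group, and the value is the treated-group measurement divided by that of the vehicle-treated control group.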

[1] = dose: 50.0 mg/kg/injection, schedule: Q01DX005 (ip), vehicle: saline with Tween-80
[2] = dose: 100.0 mg/kg/injection, schedule: Q01DX005 (ip), vehicle: saline with Tween-80
[3] = dose: 200.0 mg/kg/injection, schedule: Q01DX005 (ip), vehicle: saline with Tween-80
[4] = dose: 50.0 mg/kg/injection, schedule: Q01DX009 (ip), vehicle: saline with Tween-80
[5] = dose: 100.0 mg/kg/injection, schedule: Q01DX009 (ip), vehicle: saline with Tween-80
[6] = dose: 100.0 mg/kg/injection, schedule: Q01DX009 (ip), vehicle: Klucel (hydroxypropylcellulose) (HPC)
[7] = dose: 200.0 mg/kg/injection, schedule: Q01DX009 (ip), vehicle: Klucel (hydroxypropylcellulose) (HPC)
[8] = dose: 200.0 mg/kg/injection, schedule: Q01DX009 (ip), vehicle: saline with Tween-80
[9] = dose: 12.5 mg/kg/injection, schedule: Q01DX009 (ip), vehicle: saline with Tween-80
[10] = dose: 100.0 mg/kg/injection, schedule: Q04DX002 (ip), vehicle: saline with Tween-80
[11] = dose: 200.0 mg/kg/injection, schedule: Q04DX002 (ip), vehicle: saline with Tween-80
[12] = dose: 50.0 mg/kg/injection, schedule: Q01DX005 (ip), vehicle: Klucel (hydroxypropylcellulose) (HPC)
[13] = dose: 100.0 mg/kg/injection, schedule: Q01DX005 (ip), vehicle: Klucel (hydroxypropylcellulose) (HPC)

Measured: T/C

c1ccc2oc(C34OC5CC(CC(C5)O3)O4)nc2c1
inactive: dose: 100.0 mg/kg/injection, schedule: Q01DX001 (ip), vehicle: saline with Tween-80 101 % of control | dose: 200.0 mg/kg/injection, schedule: Q01DX001 (ip), vehicle: saline with Tween-80 99 % of control | dose: 400.0 mg/kg/injection, schedule: Q01DX001 (ip), vehicle: saline with Tween-80 100 % of control

CC(C)CCCCCCCCCCCCC(=O)NCC(=O)NC1C(CO)OC(Nc2ncnc3nc[nH]c23)C(O)C1O (centres undefined)
active: dose: 0.5 mg/kg/injection, schedule: Q01DX009 (ip), vehicle: other 161 % of control
inactive: dose: 0.13 mg/kg/injection, schedule: Q01DX009 (ip), vehicle: other 114 % of control | dose: 1.0 mg/kg/injection, schedule: Q01DX009 (ip), vehicle: other 105 % of control | dose: 2.0 mg/kg/injection, schedule: Q01DX009 (ip), vehicle: other 89 % of control

O=C(NC(CCS(=O)(=O)NCCCl)C(=O)OCc1ccccc1)OCc1ccccc1 (centres undefined)
inactive: dose: 12.5 mg/kg/injection, schedule: Q01DX009 (ip), vehicle: other 104 % of control | dose: 25.0 mg/kg/injection, schedule: Q01DX009 (ip), vehicle: other 90 % of control | dose: 50.0 mg/kg/injection, schedule: Q01DX009 (ip), vehicle: other 105 % of control | dose: 100.0 mg/kg/injection, schedule: Q01DX009 (ip), vehicle: other 103 % of control | dose: 200.0 mg/kg/injection, schedule: Q01DX009 (ip), vehicle: other 91 % of control

O=C(O)CCCC1CCCCC1.[Mn]
inactive: [1] 116 % of control | [2] 108 % of control | [3] 99 % of control

COc1ccc([I+]c2ccc(OC)cc2)cc1
inactive: dose: 3.0 mg/kg/injection, schedule: Q01DX009 (ip), vehicle: saline with Tween-80 104 % of control | dose: 6.0 mg/kg/injection, schedule: Q01DX009 (ip), vehicle: saline with Tween-80 120 % of control

O=C1c2ccccc2-c2cc3ccccc3c(=O)n21
inactive: dose: 60.0 mg/kg/injection, schedule: Q01DX005 (ip), vehicle: saline with Tween-80 95 % of control | dose: 120.0 mg/kg/injection, schedule: Q01DX005 (ip), vehicle: saline with Tween-80 91 % of control | dose: 240.0 mg/kg/injection, schedule: Q01DX005 (ip), vehicle: saline with Tween-80 89 % of control

COC(=O)C1=C(C(=O)OC)C(c2ccccc2)N(C)O1 (centres undefined)
inactive: [1] 103 % of control | [2] 98 % of control | [3] 106 % of control

O=C(O)c1cc(C(=O)CC(=O)c2cc(C(=O)O)c(O)c3ccccc23)c2ccccc2c1O
inactive: [4] 94 % of control | [5] 88 % of control

CCCCCCCC/C=C\CCCCCCCCN=Cc1c(O)c(O)c(C(C)C)c2cc(C)c(-c3c(C)cc4c(C(C)C)c(O)c(O)c(C=NCCCCCCCC/C=C\CCCCCCCC)c4c3O)c(O)c12
inactive: dose: 25.0 mg/kg/injection, schedule: Q01DX005 (ip), vehicle: saline + Tween-80 + alcohol 105 % of control | dose: 50.0 mg/kg/injection, schedule: Q01DX005 (ip), vehicle: saline + Tween-80 + alcohol 105 % of control | dose: 100.0 mg/kg/injection, schedule: Q01DX005 (ip), vehicle: saline + Tween-80 + alcohol 100 % of control | dose: 200.0 mg/kg/injection, schedule: Q01DX005 (ip), vehicle: saline + Tween-80 + alcohol 105 % of control

CC(=NCc1ccccc1)c1ccccc1O
inactive: dose: 50.0 mg/kg/injection, schedule: Q01DX009 (ip), vehicle: Klucel (hydroxypropylcellulose) (HPC) 99 % of control | [4] 106 % of control | [6] 93 % of control | [5] 116 % of control | [7] 92 % of control | [8] 98 % of control | dose: 400.0 mg/kg/injection, schedule: Q01DX009 (ip), vehicle: saline with Tween-80 109 % of control

O=N[O-].O=N[O-].O=N[O-].[Co+3].[NH-]CC[N-]CC[NH-]
inactive: [9] 95 % of control | dose: 25.0 mg/kg/injection, schedule: Q01DX009 (ip), vehicle: saline with Tween-80 104 % of control | [4] 114 % of control

COC(=O)C(Cc1ccc(O)cc1)NS(=O)(=O)Cc1ccccc1 (centres undefined)
inactive: [4] 107 % of control | [5] 96 % of control | [8] 99 % of control

CCOC(=O)C(C(=O)OCC)=S1c2ccccc2Sc2ccccc21
inactive: dose: 60.0 mg/kg/injection, schedule: Q01DX005 (ip), vehicle: Klucel (hydroxypropylcellulose) (HPC) 90 % of control | dose: 120.0 mg/kg/injection, schedule: Q01DX005 (ip), vehicle: Klucel (hydroxypropylcellulose) (HPC) 89 % of control

Cc1coc2c1C1OC(=O)C3(C/C=C\C(C)C2)OC13 (centres undefined)
inactive: dose: 5625.0 micrograms/kg/injection, schedule: Q01DX005 (ip), vehicle: Klucel (hydroxypropylcellulose) (HPC) 100 % of control | dose: 11250.0 micrograms/kg/injection, schedule: Q01DX005 (ip), vehicle: Klucel (hydroxypropylcellulose) (HPC) 100 % of control | dose: 22500.0 micrograms/kg/injection, schedule: Q01DX005 (ip), vehicle: Klucel (hydroxypropylcellulose) (HPC) 100 % of control

COc1ccc2nc3cc(Cl)ccc3c(NCCNCCNCCNc3c4ccc(Cl)cc4nc4ccc(OC)cc34)c2c1
inactive: [4] 115 % of control

C(=N\Nc1nnc2c(n1)[nH]c1ccccc12)/c1cccnc1
inactive: dose: 12.5 mg/kg/injection, schedule: Q01DX005 (ip), vehicle: Klucel + Tween-80 106 % of control | dose: 25.0 mg/kg/injection, schedule: Q01DX005 (ip), vehicle: Klucel + Tween-80 91 % of control | dose: 50.0 mg/kg/injection, schedule: Q01DX005 (ip), vehicle: Klucel + Tween-80 87 % of control

COc1ccc(N=Nc2c(C)[nH]n(C)c2=O)cc1
inactive: [10] 96 % of control | [11] 97 % of control

CC1(C)OCC(C2OC(O)C3OC(C)(C)OC32)O1 (centres undefined)
inactive: dose: 50.0 mg/kg/injection, schedule: Q01DX005 (ip), vehicle: saline 100 % of control | dose: 100.0 mg/kg/injection, schedule: Q01DX005 (ip), vehicle: saline 101 % of control | dose: 200.0 mg/kg/injection, schedule: Q01DX005 (ip), vehicle: saline 107 % of control

CC(c1ccccc1)[c-]1[c-][c-][c-][c-]1.[Cl][Zr][Cl].[c-]1[c-][c-][cH-][c-]1 (centres undefined)
inactive: dose: 3.12 mg/kg/injection, schedule: Q01DX009 (ip), vehicle: saline with Tween-80 93 % of control | dose: 6.25 mg/kg/injection, schedule: Q01DX009 (ip), vehicle: saline with Tween-80 104 % of control | [9] 104 % of control | [4] 95 % of control

CCCCCCCCCCCCCCCCS(=O)(=O)c1ccc(NN)cc1
inactive: [6] 90 % of control | [7] 89 % of control | dose: 400.0 mg/kg/injection, schedule: Q01DX009 (ip), vehicle: Klucel (hydroxypropylcellulose) (HPC) 87 % of control

C=C1CN(C(=O)c2ccccc2)C(=S)S1
inactive: [1] 108 % of control | [2] 108 % of control | [3] 103 % of control

CC(C)(C)N=C(CC(=NC(C)(C)C)Nc1ccccc1Cl)Nc1ccccc1Cl
inactive: [4] 91 % of control | [5] 92 % of control | [8] 86 % of control

O=[N+]([O-])CC(OCCCCCCO)C(Cl)(Cl)Cl (centres undefined)
inactive: [4] 100 % of control | [5] 95 % of control

O=C1CSC(c2ccccn2)N1CCN1C(=O)CSC1c1ccccn1 (centres undefined)
inactive: [12] 94 % of control | [13] 96 % of control | [10] 97 % of control | dose: 200.0 mg/kg/injection, schedule: Q01DX005 (ip), vehicle: Klucel (hydroxypropylcellulose) (HPC) 97 % of control | [11] 102 % of control | dose: 400.0 mg/kg/injection, schedule: Q04DX002 (ip), vehicle: saline with Tween-80 93 % of control

CCCN1CCc2c([nH]c3cc(OC)ccc23)C1C (centres undefined)
inactive: [1] 100 % of control | [2] 108 % of control

CCOC(=O)c1nc2ccccc2c(=O)n1NC(=S)Nc1ccc(Cl)cc1
inactive: [1] 93 % of control | [2] 93 % of control | [3] 105 % of control

COc1c(OC)c([N+](=O)[O-])c2c(c1[N+](=O)[O-])COC2=O
inactive: [12] 104 % of control | [13] 103 % of control
